Source: article PMC10404681, “Intrinsic catalytic properties of histone H3 lysine-9 methyltransferases preserve monomethylation levels under low S-adenosylmethionine” (The Journal of Biological Chemistry, 2023)

What was measured:
SUV39H1 = molecular target: T1, SUV39H1 (Homo sapiens, UniProt O43463); experiment: Radiometric EZ-tip methyltransferase assay, steady-state kinetics, SUV39H1; format: biochemical; conditions: SAM varied 0.1–100 μM, SUV39H1 100 nM, pH 7.9, 30 °C, n = 3, SD
T1 construct: made in house; host or cells: Rosetta E. coli (plasmid generated for this study)
T1 sequence (O43463 1-412): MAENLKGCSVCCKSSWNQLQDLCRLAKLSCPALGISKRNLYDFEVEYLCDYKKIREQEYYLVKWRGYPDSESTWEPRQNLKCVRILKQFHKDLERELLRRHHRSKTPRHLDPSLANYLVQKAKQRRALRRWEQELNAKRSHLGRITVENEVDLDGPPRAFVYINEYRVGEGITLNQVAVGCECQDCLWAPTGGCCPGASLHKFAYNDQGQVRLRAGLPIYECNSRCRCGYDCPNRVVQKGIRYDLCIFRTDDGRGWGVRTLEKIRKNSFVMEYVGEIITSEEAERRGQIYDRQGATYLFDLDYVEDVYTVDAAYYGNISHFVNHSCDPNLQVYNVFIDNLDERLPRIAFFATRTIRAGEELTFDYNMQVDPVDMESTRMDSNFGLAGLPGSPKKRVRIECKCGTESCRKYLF
Source text: (§1) The H. sapiens EHMT1 catalytic subunit (Addgene plasmid #51314) and H. sapiens SUV39H2 catalytic subunit (Addgene plasmid #25115) E. coli expression plasmids used in this study were acquired from Addgene, made possible through a gift by Cheryl Arrowsmith. The H. sapiens EHMT2 catalytic subunit E. coli expression plasmid used in this study was provided by the laboratory of Peter W. Lewis at the University of Wisconsin-Madison. All remaining histone methyltransferase expression plasmids were generated for this study and will be made freely available from Addgene.
(§2) Michaelis-Menten saturation curves were generated under steady-state conditions with the non-titrated component concentration being present at ≥5× KM specific to each enzyme. 1 × 10^5 CPM values were provided by [methyl-^3H] SAM in each reaction. Reaction times and enzyme concentrations were optimized for each HMT to ensure substrate turnover remained below 20%. […] Enzyme concentrations are calculated for the monomeric form. Reactions were incubated at 30 °C for 20 min before quenching with TFA for a final concentration of 2% v/v TFA. […] The eluates were added to 2 ml of Ultima Gold LSC Cocktail (Sigma-Aldrich) and counted on a scintillation counter (PerkinElmer). […]

EHMT1 catalytic domain = molecular target: T2, EHMT1 catalytic domain (Homo sapiens, UniProt Q9H9B1); experiment: Radiometric EZ-tip methyltransferase assay, steady-state kinetics, EHMT1; format: biochemical, H. sapiens; conditions: SAM varied 0.1–100 μM, EHMT1 25 nM, pH 7.9, 30 °C, n = 3, SD
T2 construct: EHMT1 = 982 to 1266; host or cells: Rosetta E. coli
T2 sequence (Q9H9B1 982-1266): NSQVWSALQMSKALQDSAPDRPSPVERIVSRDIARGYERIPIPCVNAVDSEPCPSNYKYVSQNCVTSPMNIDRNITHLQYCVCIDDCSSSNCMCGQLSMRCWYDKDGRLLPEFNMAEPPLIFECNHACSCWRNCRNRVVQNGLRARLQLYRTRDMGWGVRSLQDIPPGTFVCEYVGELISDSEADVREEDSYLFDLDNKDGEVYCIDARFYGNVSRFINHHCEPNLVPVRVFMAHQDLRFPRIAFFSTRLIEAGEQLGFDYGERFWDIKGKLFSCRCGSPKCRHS
Source text: as §1, §2

SUV39H2 catalytic domain = molecular target: T3, SUV39H2 catalytic domain (Homo sapiens, UniProt Q9H5I1); experiment: Radiometric EZ-tip methyltransferase assay, steady-state kinetics, SUV39H2; format: biochemical, H. sapiens; conditions: SAM varied 0.1–100 μM, SUV39H2 25 nM, pH 7.9, 30 °C, n = 3, SD
T3 construct: host or cells: Rosetta E. coli
Source text: as §1, §2

EHMT2 catalytic domain = molecular target: T4, EHMT2 catalytic domain (Homo sapiens, UniProt Q96KQ7); experiment: Radiometric EZ-tip methyltransferase assay, steady-state kinetics, EHMT2; format: biochemical, H. sapiens; conditions: SAM varied 0.1–100 μM, EHMT2 25 nM, pH 7.9, 30 °C, n = 3, SD
T4 construct: EHMT2 = 913 to 1193; made in house; host or cells: Rosetta E. coli (plasmid from the laboratory of Peter W. Lewis)
T4 sequence (Q96KQ7 913-1193): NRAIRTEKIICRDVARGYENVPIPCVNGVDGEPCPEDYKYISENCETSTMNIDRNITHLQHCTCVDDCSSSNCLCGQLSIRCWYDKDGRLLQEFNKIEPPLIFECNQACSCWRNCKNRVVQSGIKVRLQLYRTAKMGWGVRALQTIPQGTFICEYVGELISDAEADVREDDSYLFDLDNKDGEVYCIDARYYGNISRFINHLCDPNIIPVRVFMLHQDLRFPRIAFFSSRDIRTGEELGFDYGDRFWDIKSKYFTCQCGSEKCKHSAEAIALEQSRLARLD
Source text: as §1, §2

[1] = fixed H3K9me1 peptide H3(1–17) 50 μM
[2] = fixed H3K9un peptide H3(1–17) 50 μM

T3 sequence (Q9H5I1 162-410): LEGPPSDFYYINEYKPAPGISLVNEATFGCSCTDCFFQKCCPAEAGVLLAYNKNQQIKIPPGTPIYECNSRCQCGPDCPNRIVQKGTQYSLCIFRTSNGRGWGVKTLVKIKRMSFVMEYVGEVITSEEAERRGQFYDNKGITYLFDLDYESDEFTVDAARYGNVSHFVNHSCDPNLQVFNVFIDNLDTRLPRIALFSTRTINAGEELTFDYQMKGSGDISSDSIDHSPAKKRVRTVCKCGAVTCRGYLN

kcat/KM, SAM (SUV39H1; [1]): 500 M⁻¹ s⁻¹
kcat/KM, SAM (SUV39H1; [2]): 1670 M⁻¹ s⁻¹
kcat/KM, SAM (EHMT1 catalytic domain; [1]): 5000 M⁻¹ s⁻¹
kcat/KM, SAM (EHMT1 catalytic domain; [2]): 16800 M⁻¹ s⁻¹
kcat/KM, SAM (SUV39H2 catalytic domain; [1]): 6000 M⁻¹ s⁻¹
kcat/KM, SAM (SUV39H2 catalytic domain; [2]): 14300 M⁻¹ s⁻¹
kcat/KM, SAM (EHMT2 catalytic domain; [1]): 2170 M⁻¹ s⁻¹
kcat/KM, SAM (EHMT2 catalytic domain; [2]): 6670 M⁻¹ s⁻¹
SMILES: C[S+](CC[C@H](N)C(=O)[O-])C[C@H]1O[C@@H](n2cnc3c(N)ncnc32)[C@H](O)[C@@H]1O (some centres unmarked) [SAM, S-adenosylmethionine]
